Values joined by “and” are separate entries in the source; they are usually repeats but may differ in a detail not shown here. Identical values can stand only once. Like-named read-outs stand apart in the source and are kept apart here.
How the values were obtained:
[1] = system: virus-induced cell fusion (gp120-CD4 dependent); experiment: Anti-syncytial cocultivation assay: H9 cells chronically infected with HIV-1 RF mixed with uninfected C8166 cells; format: cell-based, HIV-1 RF; human H9 and C8166 cells; settings: 100 μg/ml
Source text: Syncytial cell formation depends on the interaction of gp120, expressed in the membranes of infected cells, with the CD4 antigen on neighboring cells (Camerini and Seed, 1990). We utilized a cell cocultivation model to examine the effect of the stilbene disulfonic acids on the gp120-CD4 dependent fusion process. This system consists of mixing H9 cells chronically infected with HIV-1 RF (gp120^+ cells) with uninfected C8166 cells (CD4^+ cells) as the fusion indicator. In this assay, cell fusion occurred within 2 to 3 hours of mixing at 37° C. and substantial syncytia were observed after a further 3 to 4 hours (FIG. 1, Panel A). […] These findings with the sulfated polysaccharides were consistent with a previous report (Montefiori et al., 1990).
The effect of the stilbene disulfonic acids and various sulfated polysaccharides on virus-induced cell fusion. In this assay, 10^5 H9 cells, chronically infected with the HIV-1 strain RF, were cocultured with 10^5 uninfected C8166 cells in the absence and presence of the test compounds. FIG. 1A: Positive control, no compound addition; FIG. 1B: 100 μg/ml DIDS; FIG. 1C: 100 μg/ml SITS; FIG. 1D: positive control; FIG. 1E: 10 μg/ml 500,000 MW dextran sulfate; FIG. 1F: 250 μg/ml heparin.
CD4^+ uninfected C8166 cells were seeded into 24-well trays ([…]) that contained growth medium and various concentrations of test compounds. H9 cells, chronically infected with the RF strain of HIV-1, were washed and then added as a source of gp120^+ cells at 10^5 cells/well except for the noncytopathic control: those wells received uninfected H9 cells. The trays were then incubated at 37° C. and the cocultures were observed between 1 and 6 hours p.i. Syncytia were recorded on photographic film.
Protocol: H9 cells chronically infected with RF strain of HIV-1 and uninfected C8166 cells were mixed in the presence of either DIDS, SITS, H2 DIDS, dextran sulfate, or heparin (100 μg/ml). The cells were observed after 2, 31/2 and 51/2 hours and the amount of cell fusion quantified.
Protocol: H9 cells chronically inected with HIV-1 and uninfected C8166 cells were mixed in the presence of either DIDS, SITS, H2 DIDS, dextran sulfate, heparin (at 100 μg/ml), OKT4 or OKT4A (at a 1/50 dilution). The cells were observed after 4 hours and the amount of cell fusion quantitied. OKT4 and OKT4A are monoclonal antibodies that bined the CD4 cell surface antigen.

[2] = system: virus-induced cell fusion (gp120-CD4 dependent); experiment: as above; format: cell-based, HIV-1 RF; human H9 and C8166 cells; settings: 200 μg/ml; Panel C
[3] = system: HIV-1; experiment: Back titration of cell-free supernatants (infectivity) on fresh uninfected JM cells; format: cell-based, HIV-1 (human T cell line JM)
Experimental: Protocol: JM cells were infected with HIV-1 to give a multiplicity of infection of 0.001. Virus adsorption was for 2 hours at room temperature. The cells were washed and distributed into wells containing different concentrations of test compounds and incubated. After 2 days the cells were observed and syncytia were counted. The cell-free supernatant fluids were harvested at 4 and 6 days post infection and assayed for levels of p24 viral core antigen and after 6 days the supernatants were also titrated to determine levels of infectivity.
*Syncytia-forming unit; cellfree supernatants from virus infected cells
having received the indicated concentration of compounds were incubated
with fresh uninfected JM cells and syncytia were scored to determine the
number of infectious units/ml.
supernatants from virusinfected control cells not having received drug

[4] = system: HIV-1 infected JM cells; experiment: Treatment of HIV-1 infected JM cells with DIDS, SITS and ddC; format: cell-based, HIV-1 (human T cell line JM); settings: for Mean syncytia/well 3 days p.i. / Mean syncytia/well 4 days p.i. / p24 antigen 3 days p.i. / p24 antigen 4 days p.i.: 100 μg/ml
Experimental: Protocol: JM cells were infected with HIV to give approximately 100 syncytia after 3 days. Virus adsorption was at room temperature for 2 hours. The cells were then washed thoroughly and distributed in wells of a tissue culture plate at a concentration of 1×10^5 cells/well. At 24 hours post infection either DIDS (100 μg/ml), SITS (100 μg/ml), or ddC (5 μM) were added to wells having infected cells. As virus controls, some wells had no drug added. At 42 hours post infection other wells received either ddC (5 μM), SITS (100 μg/ml), or DIDS (100, 50, 25, 12.5, 6.25 μg/ml). Syncytia were scored at 3 and 4 days post-infection and the supernatant fluids were harvested after 3 and 4 days for p24 core antigen determination.

Structure (SMILES) | Syncytia after 2 hrs ([1]; virus control ++) | Syncytia after 3 1/2 hrs ([1]; virus control +++) | Syncytia after 5 1/2 hrs ([1]; virus control +++) | cell fusion / syncytia [2] | Back titration of cell-free supernatants at 6 days p.i. ([3]; 25 μg/ml) | Back titration of cell-free supernatants at 6 days p.i. ([3]; 100 μg/ml) | viral infectivity in the cell-free supernatants ([3]; data not shown) | Mean syncytia/well 3 days p.i. ([4]; added 24 hr) | Mean syncytia/well 4 days p.i. ([4]; added 24 hr) | p24 antigen 3 days p.i. ([4]; added 24 hr) [pg/mL] | p24 antigen 4 days p.i. ([4]; added 24 hr) [pg/mL] | Mean syncytia/well 3 days p.i. ([4]; added 42 hr) | Mean syncytia/well 4 days p.i. ([4]; added 42 hr) | p24 antigen 3 days p.i. ([4]; added 42 hr) [pg/mL] | p24 antigen 4 days p.i. ([4]; added 42 hr) [pg/mL] | activity at 100 µg/mL ([4]; Human immunodeficiency virus 1, 72 h, read-out: p24 antigen 3 days p.i., % control, 100 μg/ml, added 24 hr) [%] | activity at 100 µg/mL ([4]; Human immunodeficiency virus 1, 72 h, read-out: p24 antigen 3 days p.i., % control, 100 μg/ml, added 42 hr) [%] | activity at 100 µg/mL ([4]; Human immunodeficiency virus 1, 96 h, read-out: p24 antigen 4 days p.i., % control, 100 μg/ml, added 24 hr) [%] | activity at 100 µg/mL ([4]; Human immunodeficiency virus 1, 96 h, read-out: p24 antigen 4 days p.i., % control, 100 μg/ml, added 42 hr) [%]
O=S(=O)(O)c1cc(N=C=S)ccc1CCc1ccc(N=C=S)cc1S(=O)(=O)O [H2 DIDS, 4,4'-diisothiocyanatodihydrostilbene-2,2'-disulfonic acid] | 0 | 0 | 0 |  |  |  |  |  |  |  |  |  |  |  |  |  |  |  | 
CC(=O)Nc1ccc(C=Cc2ccc(N=C=S)cc2S(=O)(=O)O)c(S(=O)(=O)O)c1 [SITS, 4-acetamido-4'-isothiocyanatostilbene-2,2'-disulfonic acid] |  |  |  | had no effect | 1.9 × 10^3 SFUs/ml and 2.5 × 10^3 SFUs/ml | < 10^1 SFUs/ml | absence of viral infectivity | As VC | As VC | 18000 | 62500 | As VC | As VC | 7000 | 95000 | 38 | 15 | 70 | > 100

— patent US5494932A, “Sulfonic stilbene derivatives in the treatment of viral disease” (Merrell Dow Pharmaceuticals Inc., priority 1991, dated 1996)
